Experimental findings from a melting point compilation (Tetko et al.; mined from patent text by program, amines drawn as free bases though some values may be those of a salt) are described below.

One may read the melting point as the temperature, or range, at which the solid turns liquid. Compound `CC#CC1(O)CCC2C3CCC4=CC(=O)CCC4C3C(=CF)CC21C` (configuration not stated) had a melting point of 148 °C.

For `CCOc1c(C)cc(P(c2cc(C)c(OCC)c(C)c2)c2cc(C)c(OCC)c(C)c2)cc1C`, the melting point came to 122 °C.

The compound `Cc1c(Nc2c(C#N)cncc2-c2cnc(C=O)n2C)ccc2[nH]ccc12` came in with a melting point of 200 to 202 °C.

`Cc1cccc(-c2nc3cccnn3c2-c2ccnc(NC(=O)Nc3ccccc3)c2)c1` had a melting point of 247 to 249 °C.

With `Cc1nnc2ccc(-c3ccc(C(C)(C)C)cc3)nn12`, the melting point was 142 to 145 °C.

For `COC(=O)c1cccc(CC2COc3ccc(OCc4nc5cc(F)ccc5s4)cc3C2O)c1` (configuration not stated), the melting point fell in the range of 171 to 173 °C.

`O=C(NC1CCN(CCCOc2ccccc2-c2ncc(C(=O)O)c(O)n2)CC1)c1ccccc1` yielded a melting point of 145 to 146 °C.

Consider `CC(C)(C)NS(=O)(=O)c1cccc2c1CSC2`, for which the melting point lay within 128 to 132 °C.

Compound `CC(C)(C)OC(=O)Nc1cnc(Cl)cc1C(=O)O` showed a melting point of 250 °C.

The compound `COC(=O)c1cc(C#Cc2cnc3nc(NC(=O)C(C)(C)C)nc(O)c3c2)cn1[Si](C(C)C)(C(C)C)C(C)C` returned a melting point of 163 to 165 °C.

In turn, `CCCCCN(CC(=O)OCC)C(=O)C(CCC(=O)O)CS(=O)(=O)c1ccc2ccccc2c1` (configuration not stated) gave a melting point of 77 to 80 °C.

`COc1ccc2c(Cc3c(Cl)cncc3Cl)nnc(N3CCCC3)c2c1`: the melting point fell in the range of 170 to 172 °C.

The compound `CC(C)n1cccc1C(N)=S` showed a melting point of 97.5 to 100 °C.

For `CC1CCN(CCCC(=O)c2ccc3sc4ccc(C(=O)CCCN5CCC(C)CC5)cc4c3c2)CC1`, the melting point is 136 to 138 °C.

Regarding `C1=Cc2ccccc2C(N2CCNCC2)c2ccccc21`, the melting point is 139 to 141 °C.

`CC(C)CC(C=O)NC(=O)C(Cc1c[nH]cn1)NC(=O)C(CNC(=O)Cc1cccc2ccccc12)Cc1ccccc1` (configuration not stated) had a melting point of 105 to 109 °C.

`O=C1Nc2c(ccc3c2CCCC3)SC1CCCBr` (configuration not stated): the melting point lay in the range of 122 to 123 °C.

For the compound `COc1ccccc1S(=O)(=O)N(C)c1cccc2cc(C3=NCC(CC(=O)O)S3)[nH]c12` (configuration not stated), the melting point lay within 197 to 198 °C.

`O=c1[nH]c2cscc2c(=O)n1CCN1CCN(c2ccccc2)CC1` registered a melting point above 250 °C.

As for `O=C1CS(=O)c2ccccc2N1` (configuration not stated), the melting point lay in the range of 184 to 186 °C.

`CCCC1=Cc2c(c(C)c(C)c3oc(C(=O)O)cc23)C1=O` returned a melting point of 242 °C.

Compound `Cc1c(Cl)cc(C(C)C)c2oc(SCCN3CCN(CC(=O)Nc4c(C(C)C)cccc4C(C)C)CC3)nc12` displayed a melting point of 162 to 163 °C.

Compound `CC1(C)CCC(C)(C#N)c2ccccc21` (configuration not stated) showed a melting point of 46 °C.

Regarding `CCCCc1nc2c(n1Cc1ccc(-c3ccccc3S(=O)(=O)NC(=O)NCCC)cc1)C(=CC(=O)OCC)CCS2`, the melting point is 170 °C.

Consider `O=C1NCCN1C1CCC(NCC(O)COc2ccc(OCC3CC3)cc2)CC1` (configuration not stated), for which the melting point is 163 to 165 °C.

Take `O=C(O)/C=C/c1cccc(-c2nc3c(=O)n(CC4CCCCC4)c(=O)n(CC4CCCCC4)c3[nH]2)c1`: the melting point was above 350 °C.

For the compound `ClCCCOc1ccc(-c2ccc(OCCCCl)cc2)cc1`, the melting point stood at 201 °C.

`CCCCC(CC)Cn1c(C)cc(C)c(C(=O)O)c1=O` (configuration not stated) returned a melting point of 89 to 91 °C.

`Cc1cccc(C)c1NC(=O)c1ccc(C(N)=O)cc1`: the melting point is 246 to 248 °C.

`COc1ccc2cc3c(c(-c4ccc5c(c4)OCO5)c2c1OC)C(=O)NC3=O` had a melting point of 274 to 276 °C.

As to `N#Cc1c(Cl)c(Cl)n(C#N)c1-c1ccc(Cl)c(Cl)c1`, the melting point was in the range of 250 to 252 °C.

As to `CCCCOC(=O)Nc1ccnc(-c2ccncc2)n1`, the melting point lay in the range of 180 to 182 °C.

Consider `COc1cc(CC(=O)O)c(C(=O)O)cc1OC`, for which the melting point fell in the range of 217 to 219 °C.

Regarding `CC1(C)C=Cc2c(ccc3ncccc23)O1`, the melting point was 104 to 107 °C.

`CC(O)(CF)C(=O)Nc1ccc(S(=O)(=O)c2ccncc2)cc1` (configuration not stated) showed a melting point of 209 to 211 °C.

`CC(OC(=O)C1CCNCC1)C(c1ccccc1)(c1ccccc1)c1ccccc1` (configuration not stated) came in with a melting point of 154 to 155 °C.

For `Cc1ccc(SN=C2C(=O)N3C(C(=O)OC(c4ccccc4)c4ccccc4)=C(CSc4nnnn4C)CSC23)cc1` (configuration not stated), the melting point was 154 to 155 °C.

The compound `CS(=O)(=O)n1c(Cc2ccc(C(=O)O)cc2)cc2cc(Cl)ccc21` came in with a melting point of 244 °C.

Compound `Cc1cnc2c(C#N)cnn2c1` came in with a melting point of 193 to 194 °C.

`COC(=O)C1=C(C(F)F)NC(C)=C(C(=O)OC(C)C)C1c1cccc(Cl)c1Cl` (configuration not stated) showed a melting point of 156 to 157 °C.

`Nc1nc2ccccc2c2c1ncn2CCNC(=O)CCc1ccccc1`: the melting point fell in the range of 254 to 256 °C.

`CC1(C)OC(=O)c2ccc(COc3c(F)cc([N+](=O)[O-])cc3F)cc21` came in with a melting point of 125 to 127 °C.

For `CS(=O)(=O)Nc1ccc(Cn2c(=S)n(Cc3ccc(OC(F)(F)F)cc3)c3ccccc32)cc1`, the melting point was 167 to 170 °C.

`CCN(S(=O)(=O)NC(=O)N1N=C(C)CC1c1ccccc1)S(=O)(=O)N(C)C` (configuration not stated) showed a melting point of 138 to 139 °C.

`CCCC(=O)N(C)Cc1c(-c2ccc(C)cc2)nc2n1-c1ccccc1CC2` registered a melting point of 110 to 112 °C.

Turning to `CC(C)c1cc(OCCO[Si](C(C)C)(C(C)C)C(C)C)cc2c1C(=O)N(CCl)S2(=O)=O`, the melting point was in the range of 85 to 86 °C.

`CCCCOc1cc(C(=O)NCCN(CC)CC)cc(S(N)(=O)=O)c1Cc1ccccc1` displayed a melting point of 163 °C.

As for `O=C(Nc1cccc2c1C(=O)c1c-2n[nH]c1-c1ccc(C(=O)N2CCNCC2)s1)NN1CCOCC1`, the melting point lay in the range of 241 to 242 °C.

As for `CC(C)(C)[Si](C)(C)OC1CN(c2ccc(N3C[C@H](CO)OC3=O)cc2F)C1`, the melting point is 183 to 186 °C.

In turn, `CN(C)C(=O)c1cccnc1S(N)(=O)=O` registered a melting point of 188 to 191 °C.

`CC(=O)c1ccc(S(=O)(=O)C[N+](=O)[O-])cc1` registered a melting point of 94 to 95 °C.

With `CCCn1c2cc(C)ccc2c2oc(C(=O)Cl)cc21`, the melting point lay in the range of 130 to 132 °C.

Compound `CC(=O)c1csc(S(N)(=O)=O)c1` showed a melting point of 170 to 172 °C.

The compound `CCC(CC)NC(=O)c1cc(-c2cnc3[nH]cc(C(=O)C4(C)CCCCC4)c3n2)cs1` had a melting point of 273 to 275 °C.

`COc1cccc(C(=O)Nc2ccc(OCCN3CCOCC3)c3ccccc23)c1` had a melting point of 105 to 107 °C.

In the case of `Cc1nc(NC(=O)c2cnn3c(C(F)(F)F)cc(-c4ccc(Cl)cc4)nc23)sc1S(N)(=O)=O`, the melting point came to 305 °C.

In turn, `CCCCNCCCNCCCCCCCCNCCCNCCCC` yielded a melting point above 300 °C.

In the case of `CN(Cc1cc(C(F)(F)F)cc(C(F)(F)F)c1)C(=O)c1c(-c2ccc(F)cc2)c2cccnc2c(=O)n1C`, the melting point lay within 211 to 212 °C.

For the compound `CC(C)(C)n1cnc2c(O)nc3ccccc3c21`, the melting point is above 300 °C.

Take `Nc1n[nH]c2cccc(C(F)(F)F)c12`: the melting point fell in the range of 129 to 130 °C.

Compound `O=CNCC1c2cccc3c2N(CC3)c2ccccc2N1C=O` (configuration not stated) registered a melting point of 201 to 202 °C.

As for `CCCN1CCN(C2=Nc3cc(Br)ccc3N3CCc4cccc2c43)CC1`, the melting point lay in the range of 134 to 136 °C.

`CCOCn1cnc2c1c(=O)n(C)c(=O)n2C` came in with a melting point of 110 to 112 °C.

In the case of `Cn1ncc(Cl)c(NCCCCl)c1=O`, the melting point fell in the range of 42 to 46 °C.

The compound `CCOc1cc2c(cc1OCC)C(c1ccccc1)=NCC(=O)N2` came in with a melting point of 233 to 236 °C.

As for `CCc1ccc2c(O)cnn2c1`, the melting point lay within 78 to 79 °C.

Compound `Oc1ccc(Cl)cc1C(O)c1ccc(Cl)cc1` (configuration not stated) gave a melting point of 106 to 107 °C.

Consider `O=C(O)COc1ccc(C(F)(F)F)cc1C(=O)NCc1ccc(Br)cc1F`, for which the melting point was 169 to 170 °C.

Regarding `CN1C(=O)N2[C@H](c3cccc(O)c3)c3[nH]c4ccc(Br)cc4c3C[C@@]2(C)C1=O` (racemic), the melting point fell in the range of 248 to 251 °C.

Compound `COc1ccc(C(O)CNCc2cccc(OC)c2C)cc1OC` (configuration not stated) registered a melting point of 135 to 136 °C.

The compound `C=CCN1CC(C)N(C(c2ccc(C(=O)N(CC)CC)cc2)c2cccc(O)c2)CC1C` (configuration not stated) came in with a melting point of 170 to 171 °C.

In turn, `CCC(C)(C)c1cccc(NC=O)c1Br` gave a melting point of 88 to 89 °C.

In the case of `CC(Oc1ccc(Cl)cc1)c1ccnn2cnnc12` (configuration not stated), the melting point lay in the range of 98 to 99 °C.

Consider `Cc1c(NC(=O)c2ccc(OCC3CC3)cc2)ccc2cc(C(C)N3CCCC3)cnc12` (configuration not stated), for which the melting point was 162 to 164 °C.

`COCC1OC(=O)NC1c1ccccc1OC(C)(O)C1CCCCC1` (configuration not stated): the melting point worked out at 87 °C.

As for `FC(F)(F)c1nnc2c3cc4c(cc3ccn12)OCO4`, the melting point was in the range of 187 to 189 °C.

Compound `OCCc1ccc(OCc2ccccc2)cc1` displayed a melting point of 85 °C.

In turn, `CCCCN(CC)c1nc(C)nc2c1c(C)cn2-c1c(C)cc(CF)cc1C` yielded a melting point of 163 to 165 °C.

In turn, `CN1CC=C(c2c[nH]c3c(Cl)c(Cl)ccc23)CC1` came in with a melting point of 246 to 249 °C.

As to `Cn1cc(C(=O)O)c(=O)c2cc3cc(F)c(N4CCNC(c5cccs5)C4)cc3nc21` (racemic), the melting point fell in the range of 268 to 270 °C.

The compound `CCCc1c(OCCCS(=O)(=O)c2ccc(C(=O)NCC(=O)O)cc2)ccc(C(C)=O)c1O` had a melting point of 171 to 173 °C.

With `O=c1ccn(CCO)c(C(O)c2ccccc2OCc2ccccc2)c1OCc1ccccc1` (configuration not stated), the melting point was in the range of 196 to 197 °C.

The compound `O=C(O)COc1cc(F)c(Br)cc1C(=O)NCc1cccc([N+](=O)[O-])c1` registered a melting point of 169 to 172 °C.

For `CC(C)(Cc1ccccc1)C(NC(=O)c1ccc(Cl)cc1)Nc1c(Nc2cccnc2Cl)c(=O)c1=O` (configuration not stated), the melting point was in the range of 236 to 237 °C.

As for `COC(=O)c1c(OCc2ccccc2)ccc2c1CCCC2=NO`, the melting point fell in the range of 135 to 137 °C.

`COc1cc(C(=O)N2CCCC(CCN3CCC(C(=O)c4nc5ccccc5n4Cc4ccc(F)cc4)CC3)(c3ccc(Cl)c(Cl)c3)C2)cc(OC)c1OC` (configuration not stated): the melting point was 93 to 95 °C.

Regarding `CCCC(=O)Nc1n[nH]c2cc(-c3ccc(F)cc3)ccc12`, the melting point was determined as 232 °C.
